From patent US20140377350A1, “BILAYER TABLET FORMULATIONS OF FLURBIPROFEN AND GLUCOSAMIN” (Sanovel Ilac Sanayi Ve Ticaret Anonim Sirketi, priority 2012, published 2014)

Tests used:
[1] = in-vitro release (dissolution) of the actives from the bilayer tablet, USP paddle method; type: physicochemical; conditions: 900 ml phosphate buffer pH 7.2, 37° C., 50 RPM
Procedure: Therefore, the release profiles of the actives are as follows; the maximum 40% of total amount of flurbiprofen is released in 2 hours and 50-80% in 6 hours and at least 75% in 8 hours in 900 ml of phosphate buffer at pH 7.2 at 37° C. using USP paddle method rotating at 50 RPM. Glucosamine is released immediately and minimum 75% of the total amount is dissolved in 60 min.

[2] = cited from earlier work

CC(C(=O)O)c1ccc(-c2ccccc2)c(F)c1 (stereo not drawn) [flurbiprofen, Flurbiprofen]
total amount of flurbiprofen released ([1]; in 2 hours): ≤ 40%
total amount of flurbiprofen released ([1]; in 6 hours): 50-80%
solubility in water [2]: practically insoluble
